Key:
Assay in all cases: OncoPanel cytotoxicity assay
Type in all cases: cell-based
MCF7 = conditions: Homo sapiens, 72 hour incubation
Outline: (§1)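 Cells grown in RPMI 1640 with 10% FBS (or a special medium) at 37° C, 5% CO2 were treated 24 hours after seeding for 72 hours with 10 concentrations (3.16-fold dilutions, 0.1% DMSO final). Nuclei were dye-stained and imaged; IC50 was fit from percent of control relative cell count.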

HLE = conditions: Homo sapiens, 72 hour incubation
Outline: as §1

HT = conditions: Homo sapiens, 72 hour incubation
Outline: as §1

22Rv1 = conditions: Homo sapiens, 72 hour incubation
Outline: as §1

DLD-1 = conditions: Homo sapiens, 72 hour incubation
Outline: as §1

SK-N-FI = conditions: Homo sapiens, 72 hour incubation
Outline: as §1

PANC-1 = conditions: Homo sapiens, 72 hour incubation
Outline: as §1

AsPC-1 = conditions: Homo sapiens, ASPC1, 72 hour incubation
Outline: as §1

HCT-8 = conditions: Homo sapiens, 72 hour incubation
Outline: as §1

RD = conditions: Homo sapiens, 72 hour incubation
Outline: as §1

U266B1 = conditions: Homo sapiens, 72 hour incubation
Outline: as §1

DMS114 = conditions: Homo sapiens, DMS-114, 72 hour incubation
Outline: as §1

MG-63 = conditions: Homo sapiens, 72 hour incubation
Outline: as §1

NCI-H596 = conditions: Homo sapiens, 72 hour incubation
Outline: as §1

COLO 829 = conditions: Homo sapiens, 72 hour incubation
Outline: as §1

Daudi = conditions: Homo sapiens, 72 hour incubation
Outline: as §1

647-V = conditions: Homo sapiens, 72 hour incubation
Outline: as §1

T98G = conditions: Homo sapiens, 72 hour incubation
Outline: as §1

SH-4 = conditions: Homo sapiens, 72 hour incubation
Outline: as §1

SKOV3 = conditions: Homo sapiens, SK-OV-3, 72 hour incubation
Outline: as §1

DBTRG-05MG = conditions: Homo sapiens, 72 hour incubation
Outline: as §1

CaOV3 = conditions: Homo sapiens, Caov-3, 72 hour incubation
Outline: as §1

RPMI 6666 = conditions: Homo sapiens, 72 hour incubation
Outline: as §1

RPMI-7951 = conditions: Homo sapiens, 72 hour incubation
Outline: as §1

HuP-T4 = conditions: Homo sapiens, 72 hour incubation
Outline: as §1

Detroit 562 = conditions: Homo sapiens, 72 hour incubation
Outline: as §1

OVCAR3 = conditions: Homo sapiens, OVCAR-3, 72 hour incubation
Outline: as §1

SJRH30 = conditions: Homo sapiens, 72 hour incubation
Outline: as §1

BT474 = conditions: Homo sapiens, BT-474, 72 hour incubation
Outline: as §1

AN3 CA = conditions: Homo sapiens, 72 hour incubation
Outline: as §1

LNCaP = conditions: Homo sapiens, 72 hour incubation
Outline: as §1

Colo 320 HSR = conditions: Homo sapiens, 72 hour incubation
Outline: as §1

HepG2 = conditions: Homo sapiens, 72 hour incubation
Outline: as §1

CCF-STTG1 = conditions: Homo sapiens, 72 hour incubation
Outline: as §1

A549 = conditions: Homo sapiens, 72 hour incubation
Outline: as §1

SK-BR-3 = conditions: Homo sapiens, 72 hour incubation
Outline: as §1

RKOE6 = conditions: Homo sapiens, 72 hour incubation
Outline: as §1

SW948 = conditions: Homo sapiens, 72 hour incubation
Outline: as §1

HPAF-II = conditions: Homo sapiens, 72 hour incubation
Outline: as §1

Row | Compound | IC50 (MCF7) | IC50 (HLE) | IC50 (HT) | IC50 (22Rv1) | IC50 (DLD-1) | IC50 (SK-N-FI) | IC50 (PANC-1) | IC50 (AsPC-1) | IC50 (HCT-8) | IC50 (RD) | IC50 (U266B1) | IC50 (DMS114) | IC50 (MG-63) | IC50 (NCI-H596) | IC50 (COLO 829) | IC50 (Daudi) | IC50 (647-V) | IC50 (T98G) | IC50 (SH-4) | IC50 (SKOV3) | also measured
1 | CC[C@@H]1CNC2(CC2)CN1C(=O)[C@@H]1C[C@@H](F)CN1C(=O)C1=C(C(C)C)N2C(=N[C@@](C)(c3ccc(Cl)nc3)[C@H]2c2ccc(Cl)c(F)c2)S1 [Compound A, [(5R,6S)-5-(4-Chloro-3-fluorophenyl)-6-(6-chloropyridin-3-yl)-6-methyl-3-(propan-2-yl)-5,6-dihydroimidazo[2,1-b][1,3]thiazol-2-yl][(2S,4R)-2-{[(6R)-6-ethyl-4,7-diazaspiro[2.5]oct-7-yl]carbonyl}-4-fluoropyrrolidin-1-yl]methanone] | 0.661 µM | 28.9 µM | > 40 µM | 1.31 µM | > 40 µM | > 40 µM | > 40 µM | > 40 µM | 0.506 µM | > 40 µM | > 40 µM | > 40 µM | > 40 µM | > 40 µM | 0.289 µM | 0.599 µM | > 40 µM | > 40 µM | 0.59 µM | > 40 µM | IC50 (DBTRG-05MG): 0.132 µM; IC50 (CaOV3): > 40 µM; IC50 (RPMI 6666): 1.7 µM; IC50 (RPMI-7951): > 40 µM; IC50 (HuP-T4): > 40 µM; IC50 (Detroit 562): > 40 µM; IC50 (OVCAR3): > 40 µM; IC50 (SJRH30): > 40 µM; IC50 (BT474): > 40 µM; IC50 (AN3 CA): > 40 µM; IC50 (LNCaP): 0.27 µM; IC50 (Colo 320 HSR): > 40 µM; IC50 (HepG2): 0.335 µM; IC50 (CCF-STTG1): 0.541 µM; IC50 (A549): 0.401 µM; IC50 (SK-BR-3): 27.7 µM; IC50 (RKOE6): 38.2 µM; IC50 (SW948): > 40 µM; IC50 (HPAF-II): > 40 µM
2 | CC1(C)CCC2(CC1)N[C@@H](C(=O)N[C@@H]1CC[C@@H](C(N)=O)OC1)[C@H](c1ccnc(Cl)c1F)[C@]21C(=O)Nc2cc(Cl)ccc21 [Compound B, (3′R,4′S,5′R)—N-[(3R,6S)-6-carbamoyltetrahydro-2H-pyran-3-yl]-6″-chloro-4′-(2-chloro-3-fluoropyridin-4-yl)-4,4-dimethyl-2″-oxo-1″,2″-dihydrodispiro[cyclohexane-1,2′-pyrrolidine-3′,3″-indole]-5′-carboxamide] | 0.0833 µM | > 10 µM | > 10 µM | 0.109 µM | 8.91 µM | > 10 µM | 6.73 µM | > 10 µM | 0.0516 µM | 7.2 µM | > 10 µM | > 10 µM | > 10 µM | > 10 µM | 0.0266 µM | 0.132 µM | > 10 µM | > 10 µM | 0.116 µM | > 10 µM | IC50 (DBTRG-05MG): 0.0846 µM; IC50 (CaOV3): > 10 µM; IC50 (RPMI 6666): 0.0793 µM; IC50 (RPMI-7951): 8.63 µM; IC50 (HuP-T4): > 10 µM; IC50 (Detroit 562): 7.74 µM; IC50 (OVCAR3): > 10 µM; IC50 (SJRH30): 7.24 µM; IC50 (BT474): > 10 µM; IC50 (AN3 CA): 8.75 µM; IC50 (LNCaP): 0.064 µM; IC50 (Colo 320 HSR): > 10 µM; IC50 (HepG2): 0.0584 µM; IC50 (CCF-STTG1): 0.0852 µM; IC50 (A549): 0.0769 µM; IC50 (SK-BR-3): > 10 µM; IC50 (RKOE6): 7.59 µM; IC50 (SW948): > 10 µM; IC50 (HPAF-II): 5.79 µM

From patent US20160333419A1, “GENE SIGNATURES ASSOCIATED WITH SENSITIVITY TO MDM2 INHIBITORS” (DAIICHI SANKYO COMPANY, LIMITED, priority 2014, published 2016)
